Assay results taken from US11339157B1, “4H-pyrrolo[3,2-c]pyridin-4-one derivatives” (Bayer Aktiengesellschaft, priority 2017, dated 2022).
Read-outs that look alike come from different tables or passages of the source.

Legend:
[1] = biological target: EGFR ins ASV (insertion of ASV between V769 and D770); test: Exon 20-Mutant-EGFR(V769_D770insASV) kinase assay (TR-FRET); format: biochemical, human; conditions: 2 mM ATP
Procedure: Exon 20-Mutant-EGFR(V769_D770insASV) Kinase Assay
Inhibitory activity of compounds of the present invention against an Epidermal Growth Factor Receptor (EGFR) with an insertion of the amino acids sequence ASV between V769 and D770 was quantified employing the TR-FRET based kinase activity assay as described in the following paragraphs.
For the assay 50 nl of a 100-fold concentrated solution of the test compound in DMSO was pipetted into either a black low volume 384well microtiter plate or a black 1536 well microtiter plate (both Greiner Bio-One, Frickenhausen, Germany), 2 μl of a solution of EGFR in aqueous assay buffer [50 mM Hepes pH 7.0, 10 mM MgCl2, 1 mM dithiothreitol, 0.5 mM EGTA, 0.3 mM activated sodium ortho-vanadate, 0.005% (w/v) bovine serum albumin, 0.005% (v/v) Tween-20] were added and the mixture was incubated for 15 min at 22° C. to allow pre binding of the test compounds to the enzyme before the start of the kinase reaction. […] The concentration of EGFR was adjusted depending of the activity of the enzyme lot and was chosen appropriate to have the assay in the linear range, typical concentration was 2.5 pg/μl. The reaction was stopped by the addition of 3 μl of a solution of HTRF detection reagents (83.3 nM streptavidine-XL665 [Cisbio Bioassays, Codolet, France] and 1.67 nM PT66-Tb-Cryptate, an terbium-cryptate labelled anti-phospho-tyrosine antibody from Cisbio Bioassays [instead of the PT66 Tb cryptate PT66 Eu Chelate from Perkin Elmer can also be used]) in an aqueous EDTA-solution (133.3 mM EDTA, 0.2% (w/v) bovine serum albumin in 50 mM HEPES pH 7.5).
The resulting mixture was incubated 1 h at 22° C. to allow the binding of the biotinylated phosphorylated peptide to the streptavidine-XL665 and the PT66-Tb-Cryptate. Subsequently the amount of phosphorylated substrate was evaluated by measurement of the resonance energy transfer from the PT66-Tb-Cryptate to the streptavidine-XL665.

[2] = biological target: EGFR ins SVD (insertion of SVD between D770 and N771) (Homo sapiens, UniProt P00533, INS767SVD); test: Exon 20-Mutant-EGFR(D770_N771insSVD) kinase assay (TR-FRET); format: biochemical
Sequence of EGFR ins SVD (insertion of SVD between D770 and N771) (P00533 with tags, fused parts or gaps INS767SVD limits assumed): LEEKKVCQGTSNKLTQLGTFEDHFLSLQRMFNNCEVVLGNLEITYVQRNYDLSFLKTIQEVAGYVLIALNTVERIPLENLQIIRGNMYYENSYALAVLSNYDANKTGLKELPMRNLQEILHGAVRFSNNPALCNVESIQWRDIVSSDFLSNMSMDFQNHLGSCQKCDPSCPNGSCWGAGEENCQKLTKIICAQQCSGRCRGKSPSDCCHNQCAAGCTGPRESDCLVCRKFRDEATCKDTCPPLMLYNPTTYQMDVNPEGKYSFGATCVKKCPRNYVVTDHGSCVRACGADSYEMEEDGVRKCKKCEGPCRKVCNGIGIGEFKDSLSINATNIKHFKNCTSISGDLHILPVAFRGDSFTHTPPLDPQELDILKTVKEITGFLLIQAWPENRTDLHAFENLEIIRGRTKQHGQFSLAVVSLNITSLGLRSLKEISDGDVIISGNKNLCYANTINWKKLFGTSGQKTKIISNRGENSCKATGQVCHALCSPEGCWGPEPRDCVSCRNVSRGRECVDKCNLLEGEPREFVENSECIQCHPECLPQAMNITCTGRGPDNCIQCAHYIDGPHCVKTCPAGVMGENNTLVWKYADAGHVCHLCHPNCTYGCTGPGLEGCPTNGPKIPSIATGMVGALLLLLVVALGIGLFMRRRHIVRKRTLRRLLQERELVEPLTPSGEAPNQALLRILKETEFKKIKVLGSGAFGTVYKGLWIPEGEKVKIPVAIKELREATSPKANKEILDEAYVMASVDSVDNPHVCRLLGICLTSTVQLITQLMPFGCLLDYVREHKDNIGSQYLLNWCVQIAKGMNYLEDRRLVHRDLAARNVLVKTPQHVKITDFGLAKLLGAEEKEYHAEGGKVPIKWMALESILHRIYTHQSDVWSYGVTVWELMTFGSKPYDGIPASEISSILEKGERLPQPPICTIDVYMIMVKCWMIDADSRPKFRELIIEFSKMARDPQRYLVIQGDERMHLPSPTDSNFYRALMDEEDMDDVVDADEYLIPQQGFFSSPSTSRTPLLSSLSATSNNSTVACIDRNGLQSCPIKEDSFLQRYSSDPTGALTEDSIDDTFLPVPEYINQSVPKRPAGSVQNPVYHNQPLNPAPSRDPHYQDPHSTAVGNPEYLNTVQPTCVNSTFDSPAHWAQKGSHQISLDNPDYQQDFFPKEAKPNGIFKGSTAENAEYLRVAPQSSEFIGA

Ba/F3-EGFR-insSVD cells = test: Proliferation assay in BA/F3 (ins SVD) cells (Cell Titer-Glo); format: cell-based; conditions: Table 10, plated without EGF
How it was run: (§1)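 Ba/F3 cells stably expressing retrovirally transduced EGFR-WT or EGFR-insSVD; WT cells plated with 10 ng/mL EGF, insSVD cells without EGF. Compound exposure 48 h at 37° C; viability read by CellTiter-Glo luminescence.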

Ba/F3-EGFR-WT cells = test: Proliferation assay in BA/F3 (wild type) cells (Cell Titer-Glo); format: cell-based; conditions: Table 10, plated with 10 ng/mL EGF
How it was run: as §1

Bub1 = Bub1 (Homo sapiens (Human), UniProt O43683); test: Bub1 kinase assay (TR-FRET, 10 μM ATP); format: biochemical; conditions: mean, read-out: Bub1 kinase assay IC50 [mol/l] (mean)
Sequence of Bub1 (O43683 704-1085): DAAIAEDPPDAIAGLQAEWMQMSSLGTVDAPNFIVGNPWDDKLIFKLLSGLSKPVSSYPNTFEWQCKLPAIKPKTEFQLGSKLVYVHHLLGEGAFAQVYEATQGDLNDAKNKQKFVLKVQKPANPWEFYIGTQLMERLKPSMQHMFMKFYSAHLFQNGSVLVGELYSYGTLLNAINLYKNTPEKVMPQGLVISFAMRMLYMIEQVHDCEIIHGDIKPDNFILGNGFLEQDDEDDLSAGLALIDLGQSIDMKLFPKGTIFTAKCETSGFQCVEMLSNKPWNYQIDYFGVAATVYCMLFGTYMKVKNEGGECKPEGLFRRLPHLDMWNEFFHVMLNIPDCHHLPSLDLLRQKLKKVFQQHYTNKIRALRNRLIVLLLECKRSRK
Source text: Bub1-inhibitory activities of compounds described in the present invention were quantified using a time-resolved fluorescence energy transfer (TR-FRET) kinase assay which measures phosphorylation of the synthetic peptide Biotin-Ahx-[…]—SEQ ID NO: 5 (C-terminus in amide form), purchased from e.g. Biosyntan (Berlin, Germany) by the (recombinant) catalytic domain of human Bub1 (amino acids 704-1085), expressed in Hi5 insect cells with an N-terminal His6-tag (SEQ ID NO: 9) and purified by affinity-(Ni-NTA) and size exclusion chromatography.
In a typical assay 11 different concentrations of each compound (0.1 nM, 0.33 nM, 1.1 nM, 3.8 nM, 13 nM, 44 nM, 0.15 μM, 0.51 μM, 1.7 μM, 5.9 μM and 20 μM) were tested in duplicate within the same microtiter plate. To this end, 100-fold concentrated compound solutions (in DMSO) were previously prepared by serial dilution (1:3.4) of 2 mM stocks in a clear low volume 384-well source microtiter plate (Greiner Bio-One, Frickenhausen, Germany), from which 50 nl of compounds were transferred into a black low volume test microtiter plate from the same supplier. […] The resulting mixture (5 μl final volume) was incubated at 22° C. during 60 min., and the reaction was stopped by the addition of 5 μl of an aqueous EDTA-solution (50 mM EDTA, in 100 mM HEPES pH 7.5 and 0.2% (w/v) bovine serum albumin) which also contained the TR-FRET detection reagents (0.2 μM streptavidin-XL665 [Cisbio Bioassays, Codolet, France] and 1 nM anti-phosho-Serine antibody [Merck Millipore, cat. #35-002] and 0.4 nM LANCE EU-W1024 labeled anti-mouse IgG antibody [Perkin-Elmer, product no. AD0077, alternatively a Terbium-cryptate-labeled anti-mouse IgG antibody from Cisbio Bioassays can be used]). The stopped reaction mixture was further incubated 1 h at 22° C. in order to allow the formation of complexes between peptides and detection reagents. Subsequently, the amount of product was evaluated by measurement of the resonance energy transfer from the Eu-chelate-antibody complex recognizing the Phosphoserine residue to the streptavidin-XL665 bound to the biotin moiety of the peptide. To this end, the fluorescence emissions at 620 nm and 665 nm after excitation at 330-350 nm were measured in a TR-FRET plate reader, e.g. a Rubystar or Pherastar (both from BMG Labtechnologies, Offenburg, Germany) or a Viewlux (Perkin-Elmer) and the ratio of the emissions (665 nm/[…]) was taken as indicator for the amount of phosphorylated substrate. The data were normalised using two sets of control wells for high-(=enzyme reaction without inhibitor=0%=Minimum inhibition) and low-(=all assay components without enzyme=100%=Maximum inhibition) Bub1 activity. IC50 values were calculated by fitting the normalized inhibition data to a 4-parameter logistic equation (Minimum, Maximum, IC50, Hill; Y=Max+(Min−Max)/(1+(X/IC50)Hill)).

[3] = 2 mM ATP, mean, read-out: EGFR ins SVD IC50 [mol/l] (mean)
[4] = Table 9, read-out: mutEGFR (D770_N771insSVD) kinase assay IC50

Which results are given for COCCOc1cnccc1-c1[nH]c2c(c1Nc1ccccc1OC)C(=O)NCC2 [Example 13, 2-[3-(2-methoxyethoxy)pyridin-4-yl]-3-[(2-methoxyphenyl)amino]-1,5,6,7-tetrahydro-4H-pyrrolo[3,2-c]pyridin-4-one]?
EGFR ins ASV IC50 [mol] (mean) [1]: 3.89e-08 mol; IC50 [2, 3]: 4.41 nM; IC50 [2, 4]: 4.41 nM; IC50 (Ba/F3-EGFR-insSVD cells; Mus musculus, BaF3, 48 h): 811 nM; IC50 (Ba/F3-EGFR-WT cells; Mus musculus, BaF3, 48 h): 4010 nM; IC50 (Bub1): 350 nM

With COCCOc1cnccc1-c1[nH]c2c(c1Nc1ccccc1CC(F)F)C(=O)NCC2 [Example 15, 3-{[2-(2,2-difluoroethyl)phenyl]amino}-2-[3-(2-methoxyethoxy)pyridin-4-yl]-1,5,6,7-tetrahydro-4H-pyrrolo[3,2-c]pyridin-4-one] as the compound, how does the “EGFR ins ASV IC50 [mol] (mean)” value [1] read?
Its value is 1.34e-09 mol.

What about the IC50 [2, 3] of the same compound?
Its IC50 is 0.489 nM.

And the IC50 [2, 4]?
The IC50 was 0.489 nM.

What about the IC50 (Ba/F3-EGFR-insSVD cells; Mus musculus, BaF3, 48 h) of the same compound?
Its IC50 is 409 nM.

What about the IC50 (Ba/F3-EGFR-WT cells; Mus musculus, BaF3, 48 h) of the same compound?
Its IC50 is 2870 nM.

And the IC50 (Bub1)?
Its IC50 is 187 nM.

For COc1c(F)cccc1Nc1c(-c2ccncc2OCC(C)(C)OC)[nH]c2c1C(=O)NCC2 [Example 17, 3-[(3-fluoro-2-methoxyphenyl)amino]-2-[3-(2-methoxy-2-methylpropoxy)pyridin-4-yl]-1,5,6,7-tetrahydro-4H-pyrrolo[3,2-c]pyridin-4-one], which “EGFR ins ASV IC50 [mol] (mean)” value [1] is on record?
Its value is 1.77e-10 mol.

What about the IC50 [2, 3] of the same compound?
Its IC50 is 0.113 nM.

What about the IC50 [2, 4] of the same compound?
Its IC50 is 0.113 nM.

And the IC50 (Ba/F3-EGFR-insSVD cells; Mus musculus, BaF3, 48 h)?
Its IC50 is 11.9 nM.

And the IC50 (Ba/F3-EGFR-WT cells; Mus musculus, BaF3, 48 h)?
The IC50 was 397 nM.

And the IC50 (Bub1)?
The IC50 was 55.1 nM.

For COC(C)(C)COc1cnccc1-c1[nH]c2c(c1Nc1cccc(F)c1OC(F)F)C(=O)NCC2 [Example 19, 3-{[2-(difluoromethoxy)-3-fluorophenyl]amino}-2-[3-(2-methoxy-2-methylpropoxy)pyridin-4-yl]-1,5,6,7-tetrahydro-4H-pyrrolo[3,2-c]pyridin-4-one], which “EGFR ins ASV IC50 [mol] (mean)” value [1] is on record?
Its value is 2.39e-10 mol.

And the IC50 [2, 3]?
The IC50 was 0.155 nM.

And the IC50 [2, 4]?
The IC50 was 0.148 nM.

And the IC50 (Ba/F3-EGFR-insSVD cells; 48 h)?
The IC50 was 40.1 nM.

What about the IC50 (Ba/F3-EGFR-WT cells; 48 h) of the same compound?
Its IC50 is 870 nM.

And the IC50 (Bub1)?
The IC50 was 149 nM.

For COCCOc1cnccc1-c1[nH]c2c(c1Nc1cccc(F)c1C)C(=O)NCC2 [Example 20, 3-[(3-fluoro-2-methylphenyl)amino]-2-[3-(2-methoxyethoxy)pyridin-4-yl]-1,5,6,7-tetrahydro-4H-pyrrolo[3,2-c]pyridin-4-one], which “EGFR ins ASV IC50 [mol] (mean)” value [1] is on record?
Its value is 3.22e-10 mol.

And the IC50 [2, 3]?
The IC50 was 0.149 nM.

And the IC50 [2, 4]?
The IC50 was 0.149 nM.

What about the IC50 (Ba/F3-EGFR-insSVD cells; Mus musculus, BaF3, 48 h) of the same compound?
The IC50 was 48.3 nM.

And the IC50 (Ba/F3-EGFR-WT cells; Mus musculus, BaF3, 48 h)?
Its IC50 is 625 nM.

And the IC50 (Bub1)?
The IC50 was 67.4 nM.

Which “EGFR ins ASV IC50 [mol] (mean)” value [1] does the source give for COC(C)(C)COc1cnccc1-c1[nH]c2c(c1Nc1cccc(F)c1CC(F)F)C(=O)NCC2 [Example 23, 3-{[2-(2,2-difluoroethyl)-3-fluorophenyl]amino}-2-[3-(2-methoxy-2-methylpropoxy)pyridin-4-yl]-1,5,6,7-tetrahydro-4H-pyrrolo[3,2-c]pyridin-4-one] here?
The value was 3.42e-10 mol.

And the IC50 [2, 3]?
Its IC50 is 0.259 nM.

And the IC50 [2, 4]?
The IC50 was 0.191 nM.

What about the IC50 (Ba/F3-EGFR-insSVD cells; Mus musculus, BaF3, 48 h) of the same compound?
Its IC50 is 33 nM.

What about the IC50 (Ba/F3-EGFR-WT cells; Mus musculus, BaF3, 48 h) of the same compound?
Its IC50 is 388 nM.

What about the IC50 (Bub1) of the same compound?
The IC50 was 67.3 nM.

Which results are given for CCOc1c(F)cccc1Nc1c(-c2ccncc2OCC(C)(C)OC)[nH]c2c1C(=O)NCC2 [Example 26, 3-[(2-ethoxy-3-fluorophenyl)amino]-2-[3-(2-methoxy-2-methylpropoxy)pyridin-4-yl]-1,5,6,7-tetrahydro-4H-pyrrolo[3,2-c]pyridin-4-one]?
EGFR ins ASV IC50 [mol] (mean) [1]: 9.43e-10 mol; IC50 [2, 3]: 0.268 nM; IC50 [2, 4]: 0.415 nM; IC50 (Ba/F3-EGFR-insSVD cells; Mus musculus, BaF3, 48 h): 618 nM; IC50 (Ba/F3-EGFR-WT cells; Mus musculus, BaF3, 48 h): 2000 nM; IC50 (Bub1): 85.8 nM

For COC(C)(C)COc1cnccc1-c1[nH]c2c(c1Nc1cccc(F)c1OCC(F)F)C(=O)NCC2 [Example 27, 3-{[2-(2,2-difluoroethoxy)-3-fluorophenyl]amino}-2-[3-(2-methoxy-2-methylpropoxy)pyridin-4-yl]-1,5,6,7-tetrahydro-4H-pyrrolo[3,2-c]pyridin-4-one], which “EGFR ins ASV IC50 [mol] (mean)” value [1] is on record?
The value was 7.09e-09 mol.

And the IC50 [2, 3]?
The IC50 was 2.14 nM.

And the IC50 [2, 4]?
The IC50 was 2.14 nM.

And the IC50 (Ba/F3-EGFR-insSVD cells; Mus musculus, BaF3, 48 h)?
Its IC50 is 498 nM.

And the IC50 (Ba/F3-EGFR-WT cells; Mus musculus, BaF3, 48 h)?
Its IC50 is 2500 nM.

What about the IC50 (Bub1) of the same compound?
Its IC50 is 70.1 nM.

COCCOc1cnccc1-c1[nH]c2c(c1Nc1ccc(F)c(F)c1OC)C(=O)NCC2 [Example 28, 3-[(3,4-difluoro-2-methoxyphenyl)amino]-2-[3-(2-methoxyethoxy)pyridin-4-yl]-1,5,6,7-tetrahydro-4H-pyrrolo[3,2-c]pyridin-4-one] was tested. Which “EGFR ins ASV IC50 [mol] (mean)” value [1] did it give?
Its value is 2.69e-08 mol.

And the IC50 [2, 3]?
Its IC50 is 0.738 nM.

And the IC50 [2, 4]?
Its IC50 is 0.54 nM.

What about the IC50 (Ba/F3-EGFR-insSVD cells; Mus musculus, BaF3, 48 h) of the same compound?
Its IC50 is 644 nM.

What about the IC50 (Ba/F3-EGFR-WT cells; Mus musculus, BaF3, 48 h) of the same compound?
The IC50 was 3670 nM.

What about the IC50 (Bub1) of the same compound?
The IC50 was 565 nM.

Which results are given for COCCOc1cnccc1-c1[nH]c2c(c1Nc1cc(F)cc(F)c1OC)C(=O)NCC2 [Example 30, 3-[(3,5-difluoro-2-methoxyphenyl)amino]-2-[3-(2-methoxyethoxy)pyridin-4-yl]-1,5,6,7-tetrahydro-4H-pyrrolo[3,2-c]pyridin-4-one]?
EGFR ins ASV IC50 [mol] (mean) [1]: 2.09e-10 mol; IC50 [2, 3]: 0.0969 nM; IC50 [2, 4]: 0.109 nM; IC50 (Ba/F3-EGFR-insSVD cells; Mus musculus, BaF3, 48 h): 149 nM; IC50 (Ba/F3-EGFR-WT cells; Mus musculus, BaF3, 48 h): 1860 nM; IC50 (Bub1): 323 nM

Which “EGFR ins ASV IC50 [mol] (mean)” value [1] does the source give for COc1c(F)cc(F)cc1Nc1c(-c2ccncc2OCC(C)(C)OC)[nH]c2c1C(=O)NCC2 [Example 31, 3-[(3,5-difluoro-2-methoxyphenyl)amino]-2-[3-(2-methoxy-2-methylpropoxy)pyridin-4-yl]-1,5,6,7-tetrahydro-4H-pyrrolo[3,2-c]pyridin-4-one] here?
Its value is 1.61e-10 mol.

What about the IC50 [2, 3] of the same compound?
Its IC50 is 0.0988 nM.

What about the IC50 [2, 4] of the same compound?
The IC50 was 0.193 nM.

What about the IC50 (Ba/F3-EGFR-insSVD cells; Mus musculus, BaF3, 48 h) of the same compound?
The IC50 was 158 nM.

And the IC50 (Ba/F3-EGFR-WT cells; Mus musculus, BaF3, 48 h)?
Its IC50 is 1710 nM.

What about the IC50 (Bub1) of the same compound?
The IC50 was 265 nM.
